Data: patent publication EP0103381B1, “Substituted anthra(1,9-cd)pyrazol-6(2H)-ones” (WARNER-LAMBERT COMPANY, priority 1982, dated 1984)
Like-named read-outs stand apart in the source and are kept apart here.

How the values were obtained:
[1] = test system: lymphocytic leukemia P388; assay: in vivo lymphocytic leukemia P388 test; design: species or system mice; settings: Mus musculus, P388, ip, 720 h, two single doses four days apart, read-out: T/C × 100 (Percent); for response vs control in vivo at 6.25 mg/kg: P388, Dose 6.25 mg/kg intraperitoneally; for response vs control in vivo at 12.5 mg/kg: P388, Dose 12.5 mg/kg intraperitoneally; for response vs control in vivo at 3.12 mg/kg: P388, Dose 3.12 mg/kg intraperitoneally; for response vs control in vivo at 50 mg/kg: P388, Dose 50 mg/kg intraperitoneally; for response vs control in vivo at 25 mg/kg: P388, Dose 25 mg/kg intraperitoneally; for response vs control in vivo at 100 mg/kg: P388, Dose 100 mg/kg intraperitoneally; for response vs control in vivo at 1.56 mg/kg: P388, Dose 1.56 mg/kg intraperitoneally
Description: The in vivo lymphocytic leukemia P388 test is carried out by the United States National Cancer Institute. The animals used are either male or female CD2F, mice. There are six to seven animals per test group. The tumor transplant is by intraperitoneal injection of dilute ascitic fluid containing cells of lymphocytic leukemia P388. The test compounds are administered intraperitoneally in two single doses with a four-day interval between doses at various dose levels following tumor inoculation. The animals are weighed and survivors are recorded on a regular basis for 30 days. A ratio of survival time for treated (T)/ control (C) animals is calculated. The criterion for efficacy is T/C x 100 > 125%. The positive control compound in this test is 1,4-dihydroxy-5,8-[bis[[2-[(2-hydroxyethyl)amino]-ethyl]amino]-9,10-anthracene- dione given at dosages ranging from 12.0 to 0.075 mg/kg. See Cancer Chemotherapy Reports, Part 3, 3, 1 (1972) for a comprehensive discussion of the protocol.

Penicillium avellaneum = assay: agar plate paper-disc inhibition zone screening; assay type: cell-based; settings: Hamigera avellanea, read-out: Inhibition Zone Diameter mm (Dose mg/ml) P. Avellaneum
Description: The Penicillium avellaneum is grown for six days, at 28°C, on an agar medium. This is to allow sporulation of the culture. The organism is then harvested by scraping off the cells from the agar surface (mycelia and spores) and suspending them in saline solution containing 0.05% Tween 80.
The suspension is adjusted to a light transmittancy of 20%. One ml of this suspension is used to inoculate 100 ml of the molten-agar assay medium.
(§1) Stainless steel frames, 12.3 x 25.3 cm (ID) and glass plates, 15.3 x 31.7 cm are used to make the test trays. The frames are attached to the plates with tape at each end and the inner edges sealed with 2% agar. Twenty five ml of inoculated assay medium is spread evenly on each tray and allowed to solidify. The trays are covered, inverted, and refrigerated until used.
(§2) The compounds or samples to be tested are dissolved in suitable solvents, e.g., alcohols, dimethylsulfoxide, or N,N-dimethylformamide. The samples are generally dissolved so that the final concentration of the solvent is <10%.^* The compounds are tested at different concentrations: 3,000; 1,000; 500; 100; and 10 mcg/ml. Paper discs (12.7 mm diameter) are placed on the agar trays with forceps, then 0.08 ml of the dissolved compound is pipetted onto each disc using a 0.2 ml pipette.
(§3) The disked agar trays are incubated overnight (18-20 hours) at 37°C for the bacterial cultures and 28°C for the yeasts. The Penicillium avellaneium tray is incubated for at least […] since it is a slower- growing organism.
(§4) Active compounds show a zone of inhibition around the disc. The diameter of the zone is measured in mm. The zone diameter of active compounds ranges from a minimum of 13.5 mm to as high as 60 mm. The size of the zone diameter generally reflects the activity of the compound: the larger the zone the greater the activity.

Bacillus subtilis = assay: agar plate paper-disc inhibition zone screening; assay type: cell-based; settings: read-out: Inhibition Zone Diameter mm (Dose mg/ml) B. Subtilis
Description: (§5) The bacterial and yeast isolates are maintained in agar slants or in liquid media, hereby designated as inoculum media. The cultures are transferred at regular intervals in such media. (See Table for the corresponding inoculum media of each culture.) The organisms are generally transferred on to agar slants or liquid inoculum media and incubated overnight (18-20 hours): 37°C for the bacterial isolates and 28°C for the fungal cultures.
(§6) The microbial cells from the overnight agar slants are then scraped off and suspended in saline solution (0.85% NaCI). The microbial concentrations are adjusted to a light transmittancy of 20-35%, Junior Coleman Spectrophotometer (555 M). For the organisms that are maintained in liquid media, an aliquot of the culture suspension is simply diluted with saline to 20-35% light transmittancy.
(§7) The above microbial suspension serve as inocula for the assay plates. Thus, 0.16-10 ml (see Table for exact amount) are used to inoculate 100 ml of the molten-agar assay medium.
as §1, §2, §3, §4

Streptococcus faecalis = assay: agar plate paper-disc inhibition zone screening; assay type: cell-based; settings: Enterococcus faecalis, read-out: Inhibition Zone Diameter mm (Dose mg/ml) S. Faecalis
Description: as §5, §6, §7, §1, §2, §3, §4

`CSCCn1nc2c3c(c(NCCNCCO)ccc31)C(=O)c1c(O)ccc(O)c1-2` [Example 48] was tested, and the response vs control in vivo at 6.25 mg/kg [1] was 140% and the response vs control in vivo at 12.5 mg/kg [1] was 132%.

Work on `CN(C)CCNCCn1nc2c3c(c(NCCNCCO)ccc31)C(=O)c1c(O)ccc(O)c1-2` [Example 50, 2-[2-[[2-(Dimethylamino)ethyl]amino]ethyl]-5-[[2-[(2-hydroxyethyl)amino]ethyl]amino]-7,10-dihydroxyanthra[1,9-cd]pyrazol-6(2H)-one] yielded a response vs control in vivo at 3.12 mg/kg [1] of 207%, a response vs control in vivo at 6.25 mg/kg [1] of 188% and a response vs control in vivo at 50 mg/kg [1] of 226%.

With `CN(CCO)CCn1nc2c3c(c(NCCNCCO)ccc31)C(=O)c1c(O)ccc(O)c1-2` [Example 51, 7,10-Dihydroxy-5-[[2-[(2-hydroxyethyl)amino]ethyl]amino]-2-[2-[(2-hydroxyethyl)-methylamino]ethyl]anthra[1,9-cd]pyrazol-6(2H)-one] the response vs control in vivo at 3.12 mg/kg [1] was 184%, the response vs control in vivo at 6.25 mg/kg [1] was 182% and the response vs control in vivo at 12.5 mg/kg [1] was 203%.

`O=C1c2c(O)ccc(O)c2-c2nn(CCCNCCO)c3ccc(NCCNCCO)c1c23` [Example 52, 7,10-Dihydroxy-5-[[2-[(2-hydroxyethyl)amino]ethyl]amino]-2-[3-((2-hydroxyethyi)amino]propyl]anthra[1,9-cd]pyrazol-6(2H)-one] showed a response vs control in vivo at 12.5 mg/kg [1] of 157%, a response vs control in vivo at 25 mg/kg [1] of 183% and a response vs control in vivo at 100 mg/kg [1] of 259%.

`NCCCNc1ccc2c3c(nn2CCCNCCO)-c2c(O)ccc(O)c2C(=O)c13` [Example 53] gave a response vs control in vivo at 50 mg/kg [1] of 160%.

`NCCNCCNc1ccc2c3c(nn2CCNCCO)-c2c(O)ccc(O)c2C(=O)c13` [Example 66, 5-[[2-[(2-Aminoethyl)amino]ethyl]amino]-7,10-dihydroxy-2-[2-[(2-hydroxyethyl)amino]ethyl]anthra[1,9-cd]pyrazol-6(2H)-one] gave a response vs control in vivo at 12.5 mg/kg [1] of 233% and a response vs control in vivo at 25 mg/kg [1] of 221%.

`O=C1c2c(O)ccc(O)c2-c2nn(CCNCCO)c3ccc(NCCN(CCO)CCO)c1c23` [Example 67, 5-[[2-[Bis(2-hydroxyethyl)amino]ethyl]amino]-7,10-dihydroxy-2-[2-[(2-hydroxyethyl)-amino]ethyl]anthra(1,9-cd]pyrazol-6(2H)-one] showed a response vs control in vivo at 12.5 mg/kg [1] of 158% and a response vs control in vivo at 25 mg/kg [1] of 187%.

For `O=C1c2c(O)ccc(O)c2-c2nn(CCNCCO)c3ccc(NCCCN(CCO)CCO)c1c23` [Example 68], the response vs control in vivo at 25 mg/kg [1] was 163%, the response vs control in vivo at 50 mg/kg [1] was 167% and the response vs control in vivo at 100 mg/kg [1] was 192%.

Work on `NCCCNCCCCNCCCNc1ccc2c3c(nn2CCNCCO)-c2c(O)ccc(O)c2C(=O)c13` [Example 69, 5-[(3-[[4-[(3-Aminopropyl)amino]butyl]amino]propyl]amino]-7,10-dihydroxy-2-[2-[(2-hydroxyethyl)-amino]ethyl]anthra(1,9-cd]pyrazol-6(2H)-one] yielded a response vs control in vivo at 6.25 mg/kg [1] of 127%.

For `CNCCNc1ccc2c3c(nn2CCNCCO)-c2c(O)ccc(O)c2C(=O)c13` [Example 70, 7,10-Dihydroxy-2-[2-[(2-hydraxyethyl)amino]ethyl]-5-[[2-(methylamino)ethyl]amino]anthra[1,9-cd]pyrazol-6(2H)-one], the response vs control in vivo at 6.25 mg/kg [1] was 277% and the response vs control in vivo at 12.5 mg/kg [1] was 277%.

`NCCn1nc2c3c(c(NCCCNCCO)ccc31)C(=O)c1c(O)ccc(O)c1-2` [Example 75, 2-(2-Aminoethyl)-5-[[3-[(2-hydroxyethyl)amino]propyl]amino]-7,10-dihydroxyanthra[1,9-cd]pyrazol-6(2H)-one] was tested, and the zone of inhibition at 3000 µg/mL (Penicillium avellaneum; Dose 3.0 mg/ml) was 0 mm, the zone of inhibition at 500 µg/mL (Bacillus subtilis; Dose 0.5 mg/ml) was 14 mm and the zone of inhibition at 3000 µg/mL (Streptococcus faecalis; Dose 3.0 mg/ml) was 0 mm. The response vs control in vivo at 1.56 mg/kg [1] was 181%, the response vs control in vivo at 3.12 mg/kg [1] was 177% and the response vs control in vivo at 6.25 mg/kg [1] was 184%.

Compound `O=C1c2c(O)ccc(O)c2-c2nn(CC(O)CO)c3ccc(NCCNCCO)c1c23` (centres unmarked) [Example 78, 2-(2,3-Dihydroxypropyl)-7,10-dihydroxy-5-[[2-[(2-hydroxyethyl)amino]ethyl]amino]anthra[1,9-cd]pyrazol-6(2H)-one] has a response vs control in vivo at 25 mg/kg [1] of 184%, a response vs control in vivo at 50 mg/kg [1] of 177% and a response vs control in vivo at 100 mg/kg [1] of 208%. It also gave a response vs control in vivo at 200 mg/kg ([1]; P388, Dose 200 mg/kg intraperitoneally) of 218%.

For `O=C1c2c(O)cccc2-c2nn(CCNCCO)c3ccc(NCCNCCO)c1c23` [Example 83], the zone of inhibition at 3000 µg/mL (Penicillium avellaneum) was 0 mm, the zone of inhibition at 3000 µg/mL (Bacillus subtilis) was 14 mm and the zone of inhibition at 3000 µg/mL (Streptococcus faecalis) was 0 mm.

Work on `CNCCNc1ccc2c3c(nn2CCNCCO)-c2cccc(O)c2C(=O)c13` [Example 84, 7-Hydroxy-2-[2-[(2-hydroxyethyl)amino]ethyl]-5-[[2-(methylamino)ethyl]amino]anthra[1,9-cd]pyrazol-6(2H)-one] yielded a zone of inhibition at 3000 µg/mL (Penicillium avellaneum; Dose 3.0 mg/ml) of 0 mm, a zone of inhibition at 3000 µg/mL (Bacillus subtilis; Dose 3.0 mg/ml) of 15 mm and a zone of inhibition at 3000 µg/mL (Streptococcus faecalis; Dose 3.0 mg/ml) of 14 mm.

Compound `O=C1c2cccc(O)c2-c2nn(CCNCCO)c3ccc(NCCNCCO)c1c23` [Example 85, 10-Hydroxy-2-(2-[(2-hydroxyethyl)amino]ethyl]-5-[[2-[(2-hydroxyethyl)amino]ethyl]amino]anthra[1,9-cd] pyrazol-6(2H)-one] has a zone of inhibition at 3000 µg/mL (Penicillium avellaneum; Dose 3.0 mg/ml) of 0 mm, a zone of inhibition at 3000 µg/mL (Bacillus subtilis; Dose 3.0 mg/ml) of 14 mm and a zone of inhibition at 3000 µg/mL (Streptococcus faecalis; Dose 3.0 mg/ml) of 0 mm. For the same compound, the response vs control in vivo at 25 mg/kg [1] was 163% and the response vs control in vivo at 50 mg/kg [1] was 172%.

Compound `O=C1c2c(O)cc(O)c(O)c2-c2nn(CCNCCO)c3ccc(NCCNCCO)c1c23` [Example 86, 7,9,10-Trihydroxy-2-[2-[(2-hydroxyethyl)amino]ethyl]-5-[[2-[(2-hydroxyethyl)amino]lethyl]amino]-anthra[1,9-cd]pyrazol-6(2H)-one] has a response vs control in vivo at 1.56 mg/kg [1] of 155% and a response vs control in vivo at 3.12 mg/kg [1] of 165%.

With `O=C1c2c(O)c(O)cc(O)c2-c2nn(CCNCCO)c3ccc(NCCNCCO)c1c23` [Example 87, 7,8,10-Trihydroxy-2-[2-[(2-hydroxyethyl)amino]ethyl]-5-[[2-[(2-hydroxyethyl)amino]ethyl]amino]-anthra[1,9-cd]pyrazol-6(2H)-one] the response vs control in vivo at 12.5 mg/kg [1] was 257% and the response vs control in vivo at 25 mg/kg [1] was 265%.

For `CN(C)CCNCCNc1ccc2c3c(nn2CCCN)-c2c(O)ccc(O)c2C(=O)c13` [Example 91], the zone of inhibition at 3000 µg/mL (Penicillium avellaneum; Dose 3.0 mg/ml) was 0 mm, the zone of inhibition at 3000 µg/mL (Bacillus subtilis; Dose 3.0 mg/ml) was 15 mm and the zone of inhibition at 3000 µg/mL (Streptococcus faecalis; Dose 3.0 mg/ml) was 0 mm.
